CC(C)Oc1ccc2c(=O)c(-c3ccccc3)coc2c1
solubility (mole fraction)
Conditions	278.15 K	283.15 K	288.15 K	293.15 K	298.15 K	303.15 K	308.15 K	313.15 K	318.15 K	323.15 K
in DMAc	0.0395	0.0454	0.0534	0.062	0.0721	0.0841	0.0981	0.113	0.133	0.152
in DMF	0.0245	0.0301	0.0352	0.0431	0.0506	0.0622	0.0718	0.0884	0.103	0.126
in acetone	0.00852	0.0102	0.0128	0.0157	0.0193	0.0241	0.0291	0.0363	0.0441	0.056
in acetonitrile	0.00246	0.00336	0.00441	0.0056	0.00731	0.00942	0.0122	0.0159	0.0212	0.0282
in dichloromethane	0.0667	0.0735	0.0809	0.0903	0.0988	0.108	0.119	–	–	–
in ethanol	0.000992	0.00141	0.00187	0.00239	0.00301	0.00409	0.00521	0.00696	0.00872	0.012
in methanol	0.000841	0.00109	0.0015	0.00195	0.00244	0.0032	0.00391	0.00505	0.00623	0.00823
in methyl acetate	0.00948	0.0116	0.0142	0.0174	0.0213	0.0264	0.0321	0.039	0.0479	0.059
in n-butanol	0.00166	0.00215	0.00294	0.00375	0.00494	0.00645	0.00842	0.0113	0.0153	0.0195
in n-pentanol	0.00192	0.00239	0.00338	0.00461	0.00597	0.0073	0.00992	0.0125	0.0165	0.0221
in n-propanol	0.00135	0.00172	0.00223	0.00307	0.00399	0.00509	0.00671	0.00877	0.0113	0.0147
in toluene	0.0114	0.0143	0.0174	0.022	0.0271	0.0338	0.0417	0.0523	0.0638	0.0802

Reference: BigSolDB 2.1
